Source: US8940720B2, “Macrocycles as factor XIa inhibitors” (Bristol-Myers Squibb Company, priority 2010, dated 2015)
Counter-ions that a name gives are not always drawn.

Target: purified human Factor XIa (Homo sapiens (Human), UniProt P03951)
Assay: Factor XIa enzyme inhibition assay (chromogenic substrate S-2366)
Format: biochemical
Conditions: substrate S-2366, pH 7.4
Experimental: The effectiveness of compounds of the present invention as inhibitors of the coagulation Factors XIa, VIIa, IXa, Xa, XIIa, plasma kallikrein or thrombin, can be determined using a relevant purified serine protease, respectively, and an appropriate synthetic substrate. The rate of hydrolysis of the chromogenic or fluorogenic substrate by the relevant serine protease was measured both in the absence and presence of compounds of the present invention. […] A decrease in the rate of absorbance or fluorescence change in the presence of inhibitor is indicative of enzyme inhibition. Such methods are known to one skilled in the art. The results of this assay are expressed as the inhibitory constant, Ki.
Values of Ki were determined by allowing the protease to react with the substrate in the presence of the inhibitor. Reactions were allowed to go for periods of 20-180 minutes (depending on the protease) and the velocities (rate of absorbance or fluorescence change versus time) were measured. The following relationships were used to calculate Ki values: (vo−vs)/vs=I/(Ki(1+S/Km)) for a competitive inhibitor with one binding site; or vs/vo=A+((B−A)/1+((IC50/(I)n))); and Ki=IC50/(1+S/Km) for a competitive inhibitor where: […]

Chain of purified human Factor XIa (P03951 388-625): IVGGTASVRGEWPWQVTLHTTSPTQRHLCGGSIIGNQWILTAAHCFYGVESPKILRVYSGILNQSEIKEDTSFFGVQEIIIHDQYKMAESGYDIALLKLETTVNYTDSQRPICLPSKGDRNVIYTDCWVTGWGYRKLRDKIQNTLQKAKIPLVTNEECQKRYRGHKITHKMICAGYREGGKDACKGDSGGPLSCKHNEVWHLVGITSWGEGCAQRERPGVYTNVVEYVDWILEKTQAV
Chain of purified human Factor XIa (P03951 19-387 partner): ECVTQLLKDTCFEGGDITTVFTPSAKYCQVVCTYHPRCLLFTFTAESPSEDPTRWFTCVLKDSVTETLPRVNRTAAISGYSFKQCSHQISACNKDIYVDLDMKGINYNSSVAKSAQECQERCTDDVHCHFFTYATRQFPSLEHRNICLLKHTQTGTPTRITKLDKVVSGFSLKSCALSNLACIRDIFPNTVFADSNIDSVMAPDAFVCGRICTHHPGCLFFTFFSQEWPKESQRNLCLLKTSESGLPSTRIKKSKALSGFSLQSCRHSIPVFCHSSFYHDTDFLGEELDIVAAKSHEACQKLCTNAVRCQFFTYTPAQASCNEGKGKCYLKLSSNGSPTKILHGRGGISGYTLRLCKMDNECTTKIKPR

Compound	Ki [nM]
O=C(/C=C/c1cc(Cl)ccc1-n1cnnn1)N[C@H]1CC=CCCC(=O)Nc2ccccc2C2=NN=C1O2 (mixture of isomers) [Example 122, (E)-3-(5-Chloro-2-tetrazol-1-yl-phenyl)-N-((S)-9-oxo-19-oxa-8,17,18-triaza-tricyclo[14.2.1.0^2,7]nonadeca-1(18),2,4,6,12,16-hexaen-15-yl)-acrylamide, and (Z)-3-(5-Chloro-2-tetrazol-1-yl-phenyl)-N-((S)-9-oxo-19-oxa-8,17,18-triaza-tricyclo[14.2.1.0^2,7]nonadeca-1(18),2,4,6,12,16-hexaen-15-yl)-acrylamide]	25
COC(=O)Nc1ccc2c(c1)NC(=O)CCC(C)CC[C@H](NC(=O)/C=C/c1cc(Cl)ccc1-n1cnnn1)c1nc-2c[nH]1 (single isomer, unassigned) [Example 61]	< 5
COC(=O)Nc1ccc2c(c1)NS(=O)(=O)CC=CC[C@H](NC(=O)/C=C/c1cc(Cl)ccc1-n1cnnn1)c1nc-2c[nH]1 (stereo in doubt) [Example 19, {(E)-(S)-14-[(E)-3-(5-Chloro-2-tetrazol-1-yl-phenyl)-acryloylamino]-9,9-dioxo-9λ^6-thia-8,16,18-triaza-tricyclo[13.2.1.0^2,7]octadeca-1(17),2,4,6,11,15(18)-hexaen-5-yl}-carbamic acid methyl ester]	96
NC[C@H]1CC[C@H](C(=O)N[C@H]2C/C=C/CCCc3ccccc3-c3c[nH]c2n3)CC1 [Example 3]	6170
COC(=O)Nc1ccc2c(c1)CCC/C=C/C[C@H](NC(=O)/C=C/c1cc(Cl)ccc1-n1cnnn1)c1nc-2c[nH]1 [Example 4, {(E)-(S)-14-[(E)-3-(5-Chloro-2-tetrazol-1-yl-phenyl)-acryloylamino]-16,18-diaza-tricyclo[13.2.1.0^2,7]octadeca-1(17),2,4,6,11,15(18)-hexaen-5-yl}-carbamic acid methyl ester]	636
COC(=O)Nc1ccc2c(c1)CCCCCC[C@H](NC(=O)/C=C/c1cc(Cl)ccc1-n1cnnn1)c1nc-2c[nH]1 [Example 6, {(S)-14-[(E)-3-(5-Chloro-2-tetrazol-1-yl-phenyl)-acryloylamino]-16,18-diaza-tricyclo[13.2.1.0^2,7]octadeca-1(17),2,4,6,15(18)-pentaen-5-yl}-carbamic acid methyl ester]	34
COC(=O)Nc1ccc2c(c1)OCCCCC[C@H](NC(=O)/C=C/c1cc(Cl)ccc1-n1cnnn1)c1nc-2c(Cl)[nH]1 [Example 9, {(S)-17-Chloro-14-[(E)-3-(5-chloro-2-tetrazol-1-yl-phenyl)-acryloylamino]-8-oxa-16,18-diaza-tricyclo[13.2.1.0^2,7]octadeca-1(17),2,4,6,15(18)-pentaen-5-yl}-carbamic acid methyl ester]	249
COC(=O)Nc1ccc2c(c1)NCCCCC[C@H](NC(=O)/C=C/c1cc(Cl)ccc1-n1cnnn1)c1nc-2c[nH]1 [Example 11, {(S)-14-[(E)-3-(5-Chloro-2-tetrazol-1-yl-phenyl)-acryloylamino]-8,16,18-triaza-tricyclo[13.2.1.0^2,7]octadeca-1(17),2,4,6,15(18)-pentaen-5-yl}-carbamic acid methyl ester]	6
COC(=O)Nc1ccc2c(c1)NCC(F)(F)C(=O)NC[C@H](NC(=O)/C=C/c1cc(Cl)ccc1-n1cnnn1)c1nc-2c[nH]1 [Example 21, {(S)-14-[(E)-3-(5-Chloro-2-tetrazol-1-yl-phenyl)-acryloylamino]-10,10-difluoro-11-oxo-8,12,16,18-tetraaza-tricyclo[13.2.1.0^2,7]octadeca-1(17),2,4,6,15(18)-pentaen-5-yl}-carbamic acid methyl ester]	4520
COC(=O)Nc1ccc2c(c1)NC(=O)CC/C=C/CC(NC(=O)/C=C/c1cc(Cl)ccc1-n1cnnn1)c1cc(Cl)nnc1-2 (stereo not drawn) [Example 89, Methyl((E)-3-chloro-5-((E)-3-(5-chloro-2-(1H-tetrazol-1-yl)phenyl)acrylamido)-11-oxo-5,6,9,10,11,12-hexahydrobenzo[b]pyridazino[3,4-d][1]azacyclododecin-14-yl)carbamate]	1060
COC(=O)Nc1ccc2c(c1)NC(=O)CC/C=C/C[C@H](NC(=O)[C@H]1CC[C@H](CN)CC1)c1cc-2ccn1 [Example 90, {(E)-(S)-15-[(4-Aminomethyl-cyclohexanecarbonyl)-amino]-9-oxo-8,17-diaza-tricyclo[14.3.1.0^2,7]icosa-1(20),2(7),3,5,12,16,18-heptaen-5-yl}-carbamic acid methyl ester]	< 5
COC(=O)Nc1ccc2c(c1)NC(=O)CC/C=C/CC(NC(=O)/C=C/c1cc(Cl)ccc1-n1cnnn1)c1cccc-2c1 (stereo not drawn) [Example 93, {(E)-15-[(E)-3-(5-Chloro-2-tetrazol-1-yl-phenyl)-acryloylamino]-9-oxo-8-aza-tricyclo[14.3.1.0^2,7]icosa-1(20),2,4,6,12,16,18-heptaen-5-yl}-carbamic acid methyl ester]	< 5
O=C(/C=C/c1cc(Cl)ccc1-n1cnnn1)N[C@H]1C/C=C/COC(=O)Nc2ccccc2-c2nc1[nH]c2Cl [Example 121, (E)-N-((E)-(S)-18-Chloro-9-oxo-10-oxa-8,17,19-triaza-tricyclo[14.2.1.0^2,7]nonadeca-1(18),2,4,6,12,16(19)-hexaen-15-yl)-3-(5-chloro-2-tetrazol-1-yl-phenyl)-acrylamide]	< 5
COC(=O)Nc1ccc2c(c1)NC(=O)CC/C=C/C[C@H](NC(=O)c1ccc(C#N)cc1)c1nc-2c(Cl)[nH]1 [Example 136, [(E)-(S)-18-Chloro-15-(4-cyano-benzoylamino)-9-oxo-8,17,19-triaza-tricyclo[14.2.1.0^2,7]nonadeca-1(18),2,4,6,12,16(19)-hexaen-5-yl]-carbamic acid methyl ester, 1 TFA salt]	962

Results, then the compound that gave them:

Ki [nM]	Compound
192	COC(=O)Nc1ccc2c(c1)NC(=O)CC(O)C(O)C[C@H](NC(=O)/C=C/c1cc(Cl)ccc1-n1cnnn1)c1nc-2c[nH]1 (single isomer, unassigned) [Example 137]
20	O=C(/C=C/c1cc(Cl)ccc1-n1cnnn1)N[C@H]1CCCCC(=O)Nc2cnccc2-c2ccnc1c2 [Example 138, (E)-3-(5-Chloro-2-tetrazol-1-yl-phenyl)-N-((S)-9-oxo-5,8,16-triaza-tricyclo[13.3.1.0^2,7]nonadeca-1(19),2,4,6,15,17-hexaen-14-yl)-acrylamide, 2 TFA salt]
157	COC(=O)Nc1ccc2c(c1)NC(=O)C/C=C/CC(NC(=O)/C=C/c1cc(Cl)ccc1-n1cnnn1)c1cc-2nc(C)n1 (stereo not drawn) [Example 167, {(E)-14-[(E)-3-(5-Chloro-2-tetrazol-1-yl-phenyl)-acryloylamino]-17-methyl-9-oxo-8,16,18-triaza-tricyclo[13.3.1.0^2,7]nonadeca-1(19),2,4,6,11,15,17-heptaen-5-yl}-carbamic acid methyl ester]
< 5	COC(=O)Nc1ccc2c(c1)NC(=O)CCCC[C@H](NC(=O)c1ccc(C(=N)N)cc1)c1nc-2c[nH]1 [Example I-4]
< 5	COC(=O)Nc1ccc2c(c1)NC(=O)CCCC[C@H](NC(=O)/C=C/c1cc(Cl)ccc1-n1ccnn1)c1nc-2c[nH]1 [Example I-5]
1870	COC(=O)Nc1ccc2c(c1)NC(=O)CCCC[C@H](NC(=O)c1cc(-c3cccc(Cl)c3)no1)c1nc-2c[nH]1 [Example I-9]
217	COC(=O)Nc1ccc2c(c1)NC(=O)CCCC[C@H](NC(=O)c1cn(-c3cccc(Cl)c3)nn1)c1nc-2c[nH]1 [Example I-10]
